According to patent US5990104A, “Polycyclic alcaloid-derivatives as NMDA-receptor antagonists” (priority 1995, dated 1999):

Assays:
Format in all cases: in vivo
NMDA-induced convulsions = assay: Neuroprotective/anticonvulsant activity against NMDA-induced convulsions and mortality in mice; conditions: for neuroprotectant activity, dose dependence: NMDA challenge in mice, FIGS. 1-3; for time course of protecting effects: i.c.v. preadministration at various doses, NMDA challenge; for time course of protecting effects / CD50 (95% confidence interval): mice; for CD50 (95% confidence interval): icv, NMDA 1 nmole/mouse
Protocol: The term CD50 as shown in Table 1 is defined as the dose of drug which induces a 50% reduction in the number of deaths caused by NMDA administration.
For purposes of comparison, the compounds of the present invention and reference standards were administered to mice and the time course of neuroprotectant activity was determined subsequent to challenge by NMDA. Compounds were administered i.c.v. or i.p. at different times and concentrations prior to injection of NMDA (1 nmol/mouse, I.C.V.). The mortality rate (CD50) TABLE I and the response curves.
In FIG. 1, dextrorphan was i.c.v. preadministered at a concentration of 1.0 (closed circle); 5.0 (open square); and 10 (closed square) nmole/mouse. The open circle represents preadministration of saline at a concentration of 10 μl/mouse.
A does dependent time course profile of the neuroprotectant activity against NMDA induced convulsions of compound #9 in mice is illustrated in FIG. 3. […] In both FIGS. 2 and 3, the respective compound was preadministered at (open circle); 50 (closed circle); and 100 (closed square) nmole/mouse.
Comparison of anticonvulsant activity of compounds of the
present invention and dextrorphan against NMDA-induced
convulsions in mice (at 1 nmole/mouse)

[1] = Locomotion and falling behaviour; conditions: I.C.V., mice, observed 15 to 30 minutes
Protocol: Mice were place individually in observation cages for a 60 minute habituation period. They were injected I.C.V. with test compounds and observed for 15 to 30 minutes. Locomotion and falling behavior were assessed according to the procedure of Koek and Colpaert (J. Pharm. Exp. Therm. 252 349-357, 1990). For each animal, the presence of locomotor activity and falling behaviour was recorded. Statistical significance of drug-induced changes in the occurrence of a particular behaviour was tested by means of the method of Fray et al. (Psycopharmacol 69 253-259, 1980). MK-801, known to have intrinsic neurotoxicity, induced falling behaviour at doses as low as 1.5 nmol/mouse.

[2] = Motor coordination by rotarod; conditions: 8 rpm, Compound #13 compared to dextrorphan
Protocol: Motor effects illicited by various antagonists were assessed using a rotarod treadmill (model 7600, UGO Basile, Italy). The method used was similar to the procedure described by Dunhamand Miya (J. Am. Pharmac. Assoc. 46 208-209-1957). The apparatus consisted of a rod of 2.5 cm diameter which was suspended horizontally 50 cm above a working area. The rod was turned at a speed of 8 rpm. Circular perplex separators were placed at intervals along the rod so that five animals could be tested simultaneously. All animals were conditioned to the rod for two consecutive days prior to experimentation.
The results of a study in which comparative motor impairment caused by Compound #13 was compared to dextrorphan, as assessed by rotarod.

| Compound | neuroprotectant activity, dose dependence (NMDA-induced convulsions) | time course of protecting effects (NMDA-induced convulsions) | CD50 (95% confidence interval) (NMDA-induced convulsions) | further results |
| --- | --- | --- | --- | --- |
| CC12CCCCSC(Cc3ccc(O)cc31)C2N (stereo not shown) [Compound #9, 5,6,7,8,9,11,12-heptahydro-3-hydroxy-5-methyl-10-thia-5,11-methanobenzocyclodecen-13-amine] | dose dependent neuroprotectant activity effect | time-dependent decreases in the protective effects | 0.95 (0.62-1.45) nmo1/mouse | – |
| CC12CCCCSC(Cc3ccc(O)cc31)C2NC(=N)N (stereo not drawn) [Compound #11, trans-5,6,7,8,9,11,12-heptahydro-10-thia-3-hydroxy-5-methyl-5,11-methanobenzocyclodecen-13-guanidine] | – | – | 0.16 (0.11-0.25) nmo1/mouse | potency relative to Dextrorphan (NMDA-induced convulsions; NMDA-induced convulsions in mice): approximately 3 fold; anticonvulsive activity (NMDA-induced convulsions; NMDA-induced convulsions in mice, in words): greatest activity |
| C[C@]12N[C@H](Cc3ccccc31)c1ccccc12 [MK-801] | – | – | – | dose inducing falling behaviour (as low as) [1]: 1.5 nmol/mouse |
| COc1ccc2c(c1)C1(C)CCCCSC(C2)C1N (stereo not shown) [Compound #8b, 5,6,7,8,9,11,12-heptahydro-3-methoxy-5-methyl-10-thia-5,11-methanobenzocyclodecen-13-amine] | – | – | 7.64 (4.8-12.0) nmo1/mouse | – |
| CN1CC[C@@]23CCCC[C@@H]2[C@@H]1Cc1ccc(O)cc13 [Dextrorphan, dextrorphan, reference compound] | dose dependent neuroprotectant activity effect | time-dependent decreases in the protecting effects | 0.55 (0.39-0.78) nmo1/mouse | percentage of animals showing motor effects [2]: higher for animals treated with dextrorphan than for animals treated with Compound #13 |
| CC12CCCCSC(Cc3ccc(O)cc31)C2N (single isomer, unassigned; (-)) [Compound #9a, (-)-trans-5,6,7,8,9,11,12-heptahydro-10-thia-3-hydroxy-5-methyl-5,11-methanobenzocyclodecen-13-amine] | – | – | 2.90 (1.75-4.85) nmo1/mouse | – |
| CC12CCCCCC(Cc3ccc(O)cc31)C2N (stereo not shown) [Compound #13, 5,6,7,8,9,11,12-heptahydro-3-hydroxy-5-methyl-5, 11-methanobenzocyclodecene-13-amine, reference compound] | dose dependent neuroprotectant activity effect | time-dependent decreases in the protecting effects | 28.7 (15.3-53.8) nmo1/mouse | percentage of animals showing motor effects [2]: higher for animals treated with dextrorphan than for animals treated with Compound #13 |
| CC12CCCCSC(Cc3ccc(O)cc31)C2NO (stereo not drawn) [Compound #10, 5,6,7,8,9,11,12-heptahydro-3-hydroxy-5-methyl-10-thia-5,11-methanobenzocyclodecene-13-β-hydroxylamine] | – | – | 1.79 (0.99-3.25) nmo1/mouse | – |
| CC12CCCCSC(Cc3ccc(O)cc31)C2N (single isomer, unassigned; (+)) [Compound #9b, (+)-trans-5,6,7,8,9,11,12-heptahydro-10-thia-3-hydroxy-5-methyl-5,11-methanobenzocyclodecen-13amine] | – | – | 1.58 (0.95-2.62) nmo1/mouse | – |
